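Following 48 hours of exposure in 96-well plates, responses at five concentrations were used to interpolate endpoints linearly. GI50 = concentration required for 50% inhibition of growth. At the TGI there is no net growth.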
What was measured:
Test in all cases: NCI-60 cell line screen, 48 h
[1] = test system: RPMI-8226 leukemia
[2] = test system: MDA-MB-231 breast
[3] = test system: MCF7 breast
[4] = test system: NCI/ADR-RES ovarian
[5] = test system: T-47D breast
[6] = test system: 786-0 renal
[7] = test system: HT29 colon
[8] = test system: LOX IMVI melanoma
[9] = test system: HCT-15 colon
[10] = test system: TK-10 renal
[11] = test system: UACC-62 melanoma
[12] = test system: MDA-MB-435
[13] = test system: DU-145 prostate
[14] = test system: EKVX NSCLC
[15] = test system: SK-OV-3 ovarian
[16] = test system: SR leukemia
[17] = test system: UO-31 renal
[18] = test system: A549 NSCLC
[19] = test system: SF-295 CNS
[20] = test system: MOLT-4 leukemia
[21] = test system: SNB-19 CNS
[22] = test system: HOP-62 NSCLC
[23] = test system: HOP-92 NSCLC
[24] = test system: SN12C renal
[25] = test system: SK-MEL-5 melanoma
[26] = test system: OVCAR-3 ovarian
[27] = test system: OVCAR-5 ovarian
[28] = test system: BT-549 breast

## CC[C@H](C)[C@H](NC(=O)c1nccn1C)C(=O)N(C)[C@H](C[C@@H](OC(C)=O)c1nc(C(=O)N[C@@H](Cc2ccccc2)C[C@H](C)C(=O)OC)cs1)C(C)C
[1]
  GI50: 0.531 µM
  TGI: 12.1 µM
[2]
  GI50: 1.17 µM
  TGI: 22 µM
[3]
  GI50: 0.187 µM
  TGI: > 33.3 µM
[4]
  GI50: 3.18 µM
  TGI: > 33.3 µM
[5]
  GI50: > 33.3 µM
  TGI: > 33.3 µM
[6]
  GI50: 1.17 µM
  TGI: 14.5 µM
[7]
  GI50: 1 µM
  TGI: 11.1 µM
[8]
  GI50: 1.59 µM
  TGI: > 33.3 µM
[9]
  GI50: 0.999 µM
  TGI: > 33.3 µM
[10]
  GI50: 7.49 µM
  TGI: > 33.3 µM
[11]
  GI50: 0.289 µM
  TGI: > 33.3 µM
[12]
  GI50: 0.0944 µM
  TGI: 0.428 µM
[13]
  GI50: 1.3 µM
  TGI: > 33.3 µM
[14]
  GI50: 1.72 µM
  TGI: > 33.3 µM
[15]
  GI50: 1.72 µM
  TGI: > 33.3 µM
[16]
  GI50: 0.179 µM
  TGI: > 33.3 µM
[17]
  GI50: 2.9 µM
  TGI: > 33.3 µM
[18]
  GI50: 2.43 µM
  TGI: > 33.3 µM
[19]
  GI50: 0.639 µM
  TGI: 2.07 µM
[20]
  GI50: 1.65 µM
  TGI: > 33.3 µM
[21]
  GI50: 1.28 µM
  TGI: > 33.3 µM
[22]
  GI50: 1.42 µM
  TGI: > 33.3 µM
[23]
  GI50: 4.86 µM
  TGI: > 33.3 µM
[24]
  GI50: 2.41 µM
  TGI: > 33.3 µM
[25]
  GI50: 0.668 µM
  TGI: 3.67 µM
[26]
  GI50: 0.481 µM
  TGI: 1.65 µM
[27]
  GI50: 2.23 µM
  TGI: > 33.3 µM
[28]
  GI50: 0.398 µM

Reference: PubChem BioAssay (NCI)
